Reference: patent US20080287375A1, “Selective Glycosidase Inhibitors, Methods of Making Inhibitors, and Uses Thereof” (SIMON FRASER UNIVERSITY, priority 2005, published 2008)

Legend:
COS-7 cells = experiment: Proliferation rate and morphology of COS-7 cells incubated with inhibitors; assay type: cell-based; settings: 50 μM inhibitor
Protocol: COS-7 cells were cultured in DMEM medium (Invitrogen) supplemented with 5-10% FBS (Invitrogen). Aliquots of inhibitors (50 μL of a stock in 95% ethanol) were delivered onto tissue culture plates and the ethanol was evaporated. The cells were incubated at 37° C. for 40 hours at which time they reached approximately 80% confluence. […] COS-7 cells were cultured to 25% confluence in 5% FBS and an aliquot (100 μL) of inhibitor dissolved in media and filter sterilized was added to each plate to yield a final concentration of 50 μM of inhibitor. COS-7 cells (2×10 cm plates) were harvested at the appropriate times by scraping and were pooled by centrifugation (200×g, 10 min). Cells were washed once with PBS, pH 7.0 (10 mL) and pelleted (200×g, 10 min). The cells could be frozen at −80° C. at this point. Control cultures without inhibitors were treated in the same manner.

[1] = Intravenous glucose tolerance test (IVGTT) in rats; assay type: in vivo, rat; settings: 50 mg kg^−1 tail vein
Protocol: Eight give-week old healthy Sprague-Dawley rats (Charles River) were caged in pairs. The animals were allowed to acclimatize to their new surroundings at the Simon Fraser University Animal Care Facilities (SFU ACF) for one week. At 3:00 pm, four rats were given a tail vein injection of 400 μl of inhibitor 9c dissolved in PBS buffer (pH 7.4) at a dose of 50 mg kg^−1. The remaining four rats were given a tail vein injection of 400 μl of PBS as a control. All solutions were pre-sterilized through a 0.2 μm filter (Millipore) and injected with 0.5 mL syringes containing a 28 gauge×0.5″ needle (Terumo) as bolus over 10 seconds. Food was withdrawn at approximately 11:00 pm. At 8:30 am the following morning, the rats were given a second injection. After three hours the rats were anesthetized with isoflurane and a 100 μL blood sample was taken from the jugular vein to measure the fasting blood glucose levels. An intravenous glucose tolerance test (IVGTT) was then performed. A 0.5 mL injection of a 50% w/v solution of glucose dissolved in PBS (pre-sterilized) was administered via the tail vein over 30 seconds. At 10, 20, 30, 40, 60, and 90 minutes after the injection of glucose, a 100 μL sample of blood was taken from the jugular vein. […] The soluble cell extract was then analyzed for levels O-GlcNAc modified proteins using Western blot analysis as described above for the cell studies.

## CCCC1=N[C@@H]2[C@@H](O)[C@H](O)[C@@H](CO)O[C@@H]2S1 [Compound 9c, 1,2-dideoxy-2′-propyl-α-D-glucopyranoso-[2,1-d]-2′-thiazoline]
COS-7 cells
  proliferation rate or morphology compared to control cells: no abnormalities in proliferation rate or morphology
[1]; Western blot
  levels of O-GlcNAc modified proteins in rats of the IVGTT: increased levels
[1]; short term exposure (<24 hours), 1 g kg^−1 glucose challenge
  glucose clearance rate in IVGTT: does not affect the glucose clearance rate
